Measured values taken from PMC11912748, “Image-Guided Monitoring of Mitochondria and Blood–Brain Barrier Dysfunction in Amyotrophic Lateral Sclerosis Mice” (Biomaterials Research, 2025).
Read-outs that look alike come from different tables or passages of the source. Blank lines part the entries; values can stand above or below the compound they belong to.

Assays:
[1] = in DMSO, cited from earlier work
[2] = test system: CD-1 mice; experiment: Biodistribution and clearance by NIR imaging; assay type: in vivo; details: 4 h post-injection
Protocol: (§1) Six-week-old CD-1 mice were used to quantify the blood clearance rate and urinary excretion. Mice were injected with 25 nmol of ALS04 or ALS05 in saline containing 2.5% PEG400 (polyethylene glycol, molecular weight 400) and 5% BSA via intravenous injection under isoflurane anesthesia, and blood was collected in heparinized capillary tubes (Fisher Scientific, Pittsburgh, PA) by tail nick before injection and at 1, 3, 5, 10, 30, 60, 120, 180, and 240 min post-injection and then stored in an icebox to prevent clotting. The supernatants of collected blood were filled into capillary microtubes (Fisher Scientific) after centrifugation. Mice were euthanized with CO2 inhalation to image organs and collect urine from the bladder 4 h post-injection. Collected urine samples were also placed into capillary microtubes. The fluorescence intensities of the microtubes were measured by NIR imaging along with a set of standard ALS04 or ALS05 samples of known concentrations to analyze the pharmacokinetics. Pharmacokinetic analysis was performed using the 2-compartment model (or biexponential decay) to estimate distribution (t1/2α) and elimination (t1/2β) blood half-life, the volume of distribution, and clearance. Results were presented as a biexponential decay curve.
For all real-time intraoperative imaging, a standardized imaging protocol was employed throughout the procedure using our custom-made imaging system, as previously described. Briefly, imaging utilized a 760-nm excitation source at a fluence rate of 4 mW/cm^2 combined with white light illumination (400 to 650 nm) at 40,000 lux. Camera exposure time was adjusted as needed to accurately capture the biodistribution of the fluorophores. Mice were maintained under general anesthesia using isoflurane or a combination of ketamine and xylazine (Webster Veterinary, Fort Devens, MA), and a midline incision was performed to expose the abdominal cavity. For imaging, a general field of view (FOV) of 5 cm in diameter was used to include the pancreas head, duodenum, liver, and kidneys, while a close-up FOV of 3.3 cm in diameter focused specifically on the pancreas head and duodenum. Following imaging, the mice were euthanized using CO₂ inhalation. Major organs, including the heart, lung, liver, pancreas, spleen, kidney, duodenum, intestine, and muscle, were excised and imaged ex vivo to evaluate fluorophore biodistribution and excretion pathways. The signal-to-background ratio (SBR) was calculated as follows: SBR=IROI/IAuto (2) where IROI denotes the average intensity of an ROI and IAuto represents the intensity of the muscle.

[3] = Solubility in 5% BSA in saline; assay type: physicochemical; details: 5% bovine serum albumin in saline, plasma or biological fluid, thermodynamic from solid
Protocol: MarvinSketch (ver. 23.11) and InstantJChem (ver. 23.17) calculator plug-ins (ChemAxon, Budapest, Hungary) were used to calculate in silico physicochemical property, such as molecular weight (MW), the partition and distribution coefficient (LogP and LogD at pH 7.4), surface molecular charge, hydrophobicity, the hydrogen bond acceptors/donors (HBA/HBD), the acid dissociation constant (pKa), the topological polar surface area (TPSA), and BBB score. The BBB score is determined by 5 key physicochemical descriptors, including the number of aromatic rings, the number of heavy atoms, MWHBN (a parameter derived from MW and the number of HBA/HBD), TPSA, and pKa. […] The absorbance and fluorescence emission spectra of ALS04 and ALS05 at varying concentrations were measured in dimethyl sulfoxide (DMSO) using HR2000 absorbance spectrometers (200 to 1,100 nm) and USB2000FL fluorescence spectrometers (350 to 1,000 nm) from Ocean Optics (Dunedin, FL). Fluorescence emission spectra were collected under NIR excitation using a 760-nm laser pointer (Opcom Inc., Xiamen, China). […] The fluorescence emission spectrum was integrated and plotted as a function of absorbance at 755 nm, and a linear fit was applied to determine the slope between fluorescence intensity and absorbance. […] Following this, the solution was centrifuged at 1,500g for 10 min, and the absorbance of the supernatant was measured. […]

[4] = Pharmacokinetics after single intravenous injection (2-compartment model); assay type: in vivo, CD-1 mice; details: 25 nmol i.v. in 2.5% PEG400 and 5% BSA in saline; for half-life: 25 nmol
Protocol: as §1

[5] = Photostability under continuous 760-nm irradiation in 5% BSA; assay type: physicochemical; details: 5% BSA solution, NIR imaging conditions
Protocol: To investigate the photostability of ALS04 and ALS05, 10 mM stock solutions were diluted to obtain working solutions, with concentrations of 100, 50, 20, and 10 μM in 5% BSA solution, which were then dispensed into a black 96-well plate. Subsequently, the 200-μl working solutions were exposed to continuous irradiation using a 760-nm laser diode at 4 mW/cm^2, with white light (400 to 650 nm) at 40,000 lux, and imaged for 240 min. The fluorescence (%) was calculated by analyzing the measured values with ImageJ v1.52 (National Institutes of Health, Bethesda, MD, USA) using images captured at each time point. The data, presented as mean ± SD, assessed stability by measuring regions of interest (ROIs) and comparing fluorescence intensity against the initial fluorescence signal.

[6] = test system: SH-SY5Y cells and fibroblast NIH3T3 cells; experiment: Cytotoxicity, Cell Counting Kit-8 (CCK-8); assay type: cell-based; details: Homo sapiens, 0 to 20 μM, 24 h, read-out: IC50 (cell viability)
Protocol: Cell viability was assessed using Cell Counting Kit-8 (CCK-8) from Dojindo Molecular Technologies Inc. (Kumamoto, Japan). Briefly, SH-SY5Y and NIH3T3 cells were seeded into 96-well plates at a density of 2,500 cells per well. The cells were then treated with 0 to 20 μM of each fluorophore in growth medium for 24 h, and 10% CCK-8 solutions were added to each well. The plates were incubated at 37 °C for 4 h, and absorbance was measured at 450 nm using a SpectraMax M5 plate reader (Molecular Devices). Cell viability (%) = (Asample − Ab)/(Ac − Ab) × 100, where Asample, Ab, and Ac denote the absorbance reading of sample, blanks, and negative control wells, respectively.

[7] = test system: SOD1^G93A mice; experiment: Biodistribution and targeting in ALS mouse model by NIR imaging; assay type: in vivo; details: 25 nmol retro-orbital, 4 h post-injection
Protocol: For biodistribution and targeting studies, 12-week-old B6SJLF1/J (SOD1^G93A)1Gur male mice (25 to 30 g) were purchased from the Charles River Laboratories (Wilmington, MA). Animals were housed in an AAALAC-certified facility [Massachusetts General Hospital (MGH) #D16-00361], and all animal studies were performed in accordance with the Public Health Service Policy on Humane Care of Laboratory Animals and approved by the MGH Institutional Animal Care and Use Committee (IACUC) (#N2016000136). […] Each mouse was set on the wire lid of a typical housing cage, which was then turned on its side. It was timed how long it took after the test started for the mouse to stand with at least 2 limbs on the lid. The longest latency was noted after the animals were given 3 chances to stand for a maximum of 3 min per trial. The hemizygous SOD1^G93A mice were selected via genotyping polymerase chain reaction (PCR) assay. Mice were fed chlorophyll-free mouse chow (VWR International. Radnor, PA) at least 5 d prior to imaging to minimize autofluorescence. […]
For all real-time intraoperative imaging, a standardized imaging protocol was employed throughout the procedure using our custom-made imaging system, as previously described. […] The signal-to-background ratio (SBR) was calculated as follows: SBR=IROI/IAuto (2) where IROI denotes the average intensity of an ROI and IAuto represents the intensity of the muscle.

[8] = test system: SH-SY5Y cells; experiment: In vitro model of mitochondrial dysfunction (MPP+); assay type: cell-based, human; details: MPP+ 30, 125, 500 μM for 24 h, then 1 μM for 30 min
Protocol: SH-SY5Y cells were seeded into 6-well plates (Corning Costar, no. 3516) at a density of 12,000 cells/well overnight. Cells were maintained at 37 °C in a humidified atmosphere of 5% CO2. To model mitochondrial dysfunction, undifferentiated and differentiated SH-SY5Y cells were incubated with 30, 125, and 500 μM 1-methyl-4-phenylpyridinium (MPP^+; Neurotoxin agent, Cayman, no. 16958) in the medium for 24 h. The control groups for undifferentiated and differentiated SH-SY5Y cells were treated with the same medium without MPP^+. The cells were then washed with 10% FBS/HBSS. After washing, cells were incubated with 1 μM of ALS04, MitoTracker Deep Red, and NucBlue for 30 min. The cells were imaged using BioTek Cytation 5. The fluorescent intensity of each cell was measured using ImageJ.

[9] = test system: SH-SY5Y cells; experiment: Cellular uptake inhibition (BSP pretreatment or 4 °C); assay type: cell-based, human
Protocol: SH-SY5Y cells were seeded on a 24-well plate (Corning Costar, no. 3524) and incubated at 37 °C for 48 h. To determine the role of membrane transporter in ALS04 retention, SH-SY5Y cells were pretreated with 250 μM sulfobromophthalein disodium (BSP; MedChemExpress, HY-D0217) at 37 °C for 20 min. Cells were then incubated with 1 μM of ALS04 and NucBlue (Invitrogen, Hoechst 33342, no. R37605) for 20 min at 37 °C. To evaluate the contribution of diffusion across the plasma membrane, cells were also incubated at 4 °C for 30 min, followed by incubation with 1 μM ALS04 at 4 °C for 20 min. After washing, the cells were imaged using BioTek Cytation 5. The fluorescence intensity of each cell was determined using ImageJ.

[10] = test system: SH-SY5Y cells; experiment: Subcellular localization (colocalization with LysoTracker/MitoTracker); assay type: cell-based, human; details: 1 μM, 30 min, 37 °C
Protocol: Human neuroblastoma SH-SY5Y cells [American Type Culture Collection (ATCC), Manassas, VA, USA] were cultured in a 1:1 mixture of Eagle’s minimum essential medium (EMEM; no. 30-2003, ATCC, Manassas, VA, USA) and F12K with 10% FBS and 1% penicillin-streptomycin solution. Cells were grown in a humidified atmosphere of 5% CO2 at 37 °C. The medium was replaced every 3 to 4 d, and cells were subcultured using trypsin–EDTA when 70% to 80% confluent. All media and supplements were purchased from Gibco (Gaithersburg, MD, USA). To optimize the imaging condition in this study, cells were incubated at 37 °C for 10 to 30 min in the presence of 0.1 to 1 μM of ALS04 and ALS05. After washing, the cells were imaged using BioTek Cytation 5. Fluorescence intensity was quantified using the threshold analysis method implemented in the ImageJ software. […] The cells were then washed and stained with NucBlue (2 drops/ml, Live ReadyProbes Reagent, Hoechst 33342, Invitrogen no. R37605), Lysotracker Yellow (5 μM, Invitrogen, no. L12491), and MitoTracker Deep Red (0.5 μM) (Invitrogen, no. M22426) to stain lysosome and mitochondria for 30 min as per the manufacturer’s instruction. […] Mander’s colocalization coefficients were then determined using the Costes method to choose threshold values on ImageJ [24].

[11] = Optical properties (absorbance, fluorescence, quantum yield) in DMSO; assay type: physicochemical
Protocol: MarvinSketch (ver. 23.11) and InstantJChem (ver. 23.17) calculator plug-ins (ChemAxon, Budapest, Hungary) were used to calculate in silico physicochemical property, such as molecular weight (MW), the partition and distribution coefficient (LogP and LogD at pH 7.4), surface molecular charge, hydrophobicity, the hydrogen bond acceptors/donors (HBA/HBD), the acid dissociation constant (pKa), the topological polar surface area (TPSA), and BBB score. The BBB score is determined by 5 key physicochemical descriptors, including the number of aromatic rings, the number of heavy atoms, MWHBN (a parameter derived from MW and the number of HBA/HBD), TPSA, and pKa. The final score is computed using stepwise methods for descriptors with discrete values and polynomial weight functions for descriptors with continuous ranges (ChemAxon). The absorbance and fluorescence emission spectra of ALS04 and ALS05 at varying concentrations were measured in dimethyl sulfoxide (DMSO) using HR2000 absorbance spectrometers (200 to 1,100 nm) and USB2000FL fluorescence spectrometers (350 to 1,000 nm) from Ocean Optics (Dunedin, FL). Fluorescence emission spectra were collected under NIR excitation using a 760-nm laser pointer (Opcom Inc., Xiamen, China). […] The fluorescence emission spectrum was integrated and plotted as a function of absorbance at 755 nm, and a linear fit was applied to determine the slope between fluorescence intensity and absorbance. […] A small, accurately weighed amount of each fluorophore was added to a minimal volume of solvents, and the saturated solution was then vortexed and sonicated for 5 min to ensure complete dissolution of the solids. Following this, the solution was centrifuged at 1,500g for 10 min, and the absorbance of the supernatant was measured. The solubility (g/l) was calculated by multiplying the maximum absorbance-derived concentration by the MW of each fluorophore.

Structure (SMILES): CC1(C)C(/C=C/C=C/C=C/C=C2\N(CCCCS(=O)(=O)O)c3ccc4ccccc4c3C2(C)C)=[N+](CCCCS(=O)(=O)[O-])c2ccc3ccccc3c21 [ICG, indocyanine green]
QY (quantum yield) ([1]; reference standard): 13% | Molar absorptivity [1]: 232,000 M^−1 cm^−1

SBR in duodenum or intestine and kidneys ([2]; 25 nmol): relatively high SBR | Signal in the bladder ([2]; 25 nmol): Little signal | Clearance route ([2]; 25 nmol, intravital NIR imaging): both renal and hepatic clearance | Signals in brown adipose tissue (BAT) and pituitary gland (PG) compared to ALS05 ([2]; 25 nmol, ****P ≤ 0.0001 BAT, *P = 0.0324 PG): highly selective accumulated signals | Ex vivo signal in the gastrointestinal tract ([2]; resected organs): high signal | Ex vivo signal in the kidney compared to ALS05 ([2]; resected organs): noticeably higher signal | solubility at 5 min [3]: 2530 µg/mL | AUC [4]: 775.6 nmol·min/mL | half-life ([4]; CD-1, mouse, plasma, iv, read-out: t1/2α (distribution blood half-life)): 1.82 min | half-life ([4]; CD-1, mouse, plasma, iv, read-out: t1/2β (elimination blood half-life)): 79.9 min | clearance ([4]; CD-1, mouse, plasma, iv, read-out: Cl (clearance)): 0.067 mL/min | Vd ([4]; CD-1, mouse, plasma, iv, read-out: Vd (volume of distribution)): 0.00296 L | Photostability (retained fluorescence) at 10 μM ([5]; 10 μM, 240 min): 60% | Photostability (retained fluorescence) ([5]; up to 240 min): over 90% | Ext. coeff. (molar absorptivity) [11]: 169,600 M^-1cm^-1 | Max. Abs (excitation maximum) [11]: 751 nm | Max. Fl (emission maximum) [11]: 774 nm | QY (quantum yield) ([11]; ICG as reference): 6.0%
Structure (SMILES): CN1/C(=C/C2=CC3=C/C(=C/c4sc5ccccc5[n+]4C)CCC3CC2)Sc2ccccc21 (stereo not shown) [ALS04]
IC50 [6]: ~1300 nM | Uptake in BAT of SOD1^G93A mice compared to sham mice ([7]; 3-month-old asymptomatic mice, ****P ≤ 0.0001): significantly reduced | Signals in ventral temporal (VT) lobe and third ventricle (3v) of ALS mice compared to sham mice ([7]; **P ≤ 0.01): significantly higher | Colocalization with mitochondria after MPP+ treatment [8]: dose-dependent reduction | Fluorescence signal (cellular uptake) after OATP inhibitor BSP ([9]; 250 μM BSP pretreatment 20 min, then 1 μM for 20 min, ****P ≤ 0.0001): significant reduction | Cellular uptake at 4 °C ([9]; cells at 4 °C 30 min, then 1 μM at 4 °C for 20 min): significantly reduced | Colocalization with lysosomes (colocalizing pixels) ([10]; LysoTracker): 8.5% | Colocalization with mitochondria (colocalizing pixels) ([10]; MitoTracker): 71%
